Experimental data from patent US11753408B2, “Compounds and method for blocking transmission of malarial parasite” (The United States of America, as represented by the …, priority 2016, dated 2023).

Legend:
[1] = system: Stage III-V gametocytes (blood stage P. falciparum parasites); assay: In vitro drug activity on gametocytes (AlamarBlue viability assay); type: cell-based, Plasmodium falciparum; conditions: P. falciparum stage III-V gametocytes, 72 h incubation, AlamarBlue; read-out: Gametocyte EC50
Procedure, shortened: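 P. falciparum 3D7 stage III–V gametocytes (also HB3, Dd2), enriched by 50 mM N-acetylglucosamine and Percoll gradient, seeded at 20,000/well with compound for 72 h at 37° C, 5% CO2. AlamarBlue then added for 24 h; viability read as fluorescence (Ex 525, Em 598 nm).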

PAMPA permeability = type: in vitro ADME; conditions: PAMPA
[2] = system: Asexual parasites of P. falciparum strain 3D7; assay: In vitro drug activity on asexual parasites (SYBR Green assay); type: cell-based, Plasmodium falciparum; conditions: P. falciparum 3D7 asexual parasites, 72 h, SYBR Green
Procedure, shortened: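 3D7 parasites at 0.5% parasitemia and 2% hematocrit were exposed to drugs (DMSO ≤0.5%) for 72 h under standard culture conditions, in duplicate. After freeze-thaw lysis, SYBR Green I lysis buffer was added for 30 min at room temperature, and fluorescence was read at 490/520 nm.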

[3] = Microsomal stability (rat); type: in vitro ADME; conditions: rat microsomes
Solubility at pH 7.4 = type: physicochemical

SMILES | EC50 [1] | PAMPA Permeability (×10^6 cm/s) (PAMPA permeability) | EC50 [2] | Microsomal Stability (rat) T1/2 [3] | Sol @ pH 7.4 (ug/mL) (Solubility at pH 7.4)
CN(C)Cc1ccc(-c2ccc3ncc4ccc(=O)n(-c5cccc(C#N)c5)c4c3c2)cc1 [Compound 2] | 0.427 µM | 1040.6 ×10^6 cm/s | 0.291 µM | >30.0 min | >64.0 ug/mL
Cc1ccc(C#N)cc1-n1c(=O)ccc2cnc3ccc(-c4ccc(Cl)cc4)cc3c21 [Compound 3] | 0.264 µM | 621.2 ×10^6 cm/s | 0.111 µM | 12.1 min | <0.1 ug/mL
Cc1cc(N2CCNCC2)c(C#N)cc1-n1c(=O)ccc2cnc3ccc(-c4ccc(Cl)cc4)cc3c21 [Compound 4] | 0.055 µM | 21 ×10^6 cm/s | 0.0149 µM | 9.6 min | <1 ug/mL
Cc1c(C#N)cccc1-n1c(=O)ccc2cnc3ccc(-c4ccc(Cl)cc4)cc3c21 [Compound 8] | 0.139 µM | <1 ×10^6 cm/s | 0.0603 µM | 14.5 min | <1 ug/mL
CCN(CC)Cc1ccc(-c2ccc3ncc4ccc(=O)n(-c5cc(C#N)ccc5C)c4c3c2)cc1 [Compound 9] | 2.57 µM | 1492.3 ×10^6 cm/s | 0.668 µM | 10.9 min | 58.6 ug/mL
N#Cc1cccc(-n2c(=O)ccc3cnc4ccc(-c5ccc(N)nc5)cc4c32)c1 [Compound 20] | 0.0226 µM | 505.6 ×10^6 cm/s | 0.0117 µM | >30.0 min | <1.0 ug/mL
Cc1ccc(C#N)cc1-n1c(=O)ccc2cnc3ccc(-c4ccc(N)nc4)cc3c21 [Compound 21] | 0.017 µM | 606 ×10^6 cm/s | 0.0138 µM | 12.7 min | 1.1 ug/mL
N#Cc1cc(-n2c(=O)ccc3cnc4ccc(-c5ccc(N)nc5)cc4c32)ccc1N1CCOCC1 [Compound 23] | 0.0404 µM | 58.15 ×10^6 cm/s | 0.0225 µM | 3.5 min | 1.48 ug/mL
Cc1c(C#N)cccc1-n1c(=O)ccc2cnc3ccc(-c4ccc(N)nc4)cc3c21 [Compound 24] | 0.0234 µM | 547.9 ×10^6 cm/s | 0.00588 µM | 19 min | 5.7 ug/mL
CS(=O)(=O)c1ccc(-n2c(=O)ccc3cnc4ccc(-c5ccc(Cl)cc5)cc4c32)cc1 [Compound 25] | 0.117 µM | <1.5 ×10^6 cm/s | 0.0147 µM | >30.0 min | <1.0 ug/mL
CCS(=O)(=O)c1ccc(-n2c(=O)ccc3cnc4ccc(-c5ccc(Cl)cc5)cc4c32)cc1 [Compound 27] | 0.108 µM | <1.0 ×10^6 cm/s |  | >30.0 min | <1.0 ug/mL
CN(C)Cc1ccc(-c2ccc3ncc4ccc(=O)n(-c5cccc(S(C)(=O)=O)c5)c4c3c2)cc1 [Compound 55] | 5.33 µM | 788.14 ×10^6 cm/s |  | 9.45 min | >71.00 ug/mL
CS(=O)(=O)c1cccc(-n2c(=O)ccc3cnc4ccc(-c5ccc(Cl)cc5)cc4c32)c1 [Compound 56] | 1.55 µM | 716.98 ×10^6 cm/s |  | >30.00 min | 0.01 ug/mL
CS(=O)(=O)c1ccc(-n2c(=O)ccc3cnc4ccc(-c5ccc(Cl)cc5)cc4c32)cc1N1CCOCC1 [Compound 58] | 0.89 µM | 1527.98 ×10^6 cm/s |  | 13.5 min | <0.10 ug/mL
CN(C)Cc1cccc(-c2ccc3ncc4ccc(=O)n(-c5ccc(S(C)(=O)=O)cc5)c4c3c2)c1 [Compound 60] | 1.95 µM | 1646.44 ×10^6 cm/s |  | >30.00 min | 21.28 ug/mL
CS(=O)(=O)c1ccc(-n2c(=O)ccc3cnc4ccc(-c5ccc(Cl)cc5)cc4c32)cc1CN1CCOCC1 [Compound 66] | 0.35 µM | 135 ×10^6 cm/s |  | 1.4 min | <1 ug/mL
CN(C)Cc1cc(-n2c(=O)ccc3cnc4ccc(-c5ccc(Cl)cc5)cc4c32)ccc1S(C)(=O)=O [Compound 67] | 1.34 µM | 1449.1 ×10^6 cm/s |  | 1.7 min | <1 ug/mL
CS(=O)(=O)c1cccc(-n2c(=O)ccc3cnc4ccc(-c5ccc(N)nc5)cc4c32)c1 [Compound 80] | 0.214 µM | 50.85 ×10^6 cm/s |  | 7.1 min | 49.68 ug/mL
CS(=O)(=O)c1ccc(-n2c(=O)ccc3cnc4ccc(-c5ccc(N)nc5)cc4c32)cc1N1CCOCC1 [Compound 83] | 0.0747 µM | 58.31 ×10^6 cm/s |  | >30.00 min | 5.62 ug/mL
O=C1NCc2cc(-n3c(=O)ccc4cnc5ccc(-c6ccc(Cl)cc6)cc5c43)ccc21 [Compound 339] | 0.00919 µM | <1.0 ×10^6 cm/s |  | >30.0 min | <1.0 ug/mL
O=C1NCc2ccc(-n3c(=O)ccc4cnc5ccc(-c6ccc(Cl)cc6)cc5c43)cc21 [Compound 344] | 1.51 µM | 238.8 ×10^6 cm/s |  | 19.2 min | <1.0 ug/mL
O=C(O)CN1Cc2cc(-n3c(=O)ccc4cnc5ccc(-c6ccc(Cl)cc6)cc5c43)ccc2C1=O [Compound 365] | 30.6 µM | <1.8 ×10^6 cm/s | 0.481 µM |  | 55.9 ug/mL
COC(=O)CN1Cc2cc(-n3c(=O)ccc4cnc5ccc(-c6ccc(CN(C)C)cc6)cc5c43)ccc2C1=O [Compound 366] | 3.76 µM | 47.8 ×10^6 cm/s | 1.24 µM |  | 14.8 ug/mL
O=C1NCc2cc(-n3c(=O)ccc4cnc5ccc(-c6ccc(CN7CCC7)cc6)cc5c43)ccc21 [Compound 378] | 1.55 µM | 2.3 ×10^6 cm/s |  | >30 min | >70 ug/mL
Nc1ccc(-c2ccc3ncc4ccc(=O)n(-c5ccc6c(c5)CNC6=O)c4c3c2)cn1 [Compound 388] | 0.0882 µM | 2 ×10^6 cm/s | 0.0282 µM |  | 11.8 ug/mL
Nc1ccc(-c2ccc3ncc4ccc(=O)n(-c5ccc6c(c5)CC(=O)N6)c4c3c2)cn1 [Compound 389] | 0.0653 µM | <9.7 ×10^6 cm/s | 0.0218 µM |  | <1.0 ug/mL
Nc1ccc(-c2ccc3ncc4ccc(=O)n(-c5ccc6c(c5)CCNC6=O)c4c3c2)cn1 [Compound 393] | 0.0307 µM | <1.10 ×10^6 cm/s | 0.00931 µM |  | 6.26 ug/mL
Nc1ccc(-c2ccc3ncc4ccc(=O)n(-c5ccc6c(c5)C(=O)NC6=O)c4c3c2)cn1 [Compound 395] | 46 µM | 3.9 ×10^6 cm/s |  | >30 min | 11.3 ug/mL
